Laboratory results from paper PMC4105567, “Aurora Kinases as Druggable Targets in Pediatric Leukemia: Heterogeneity in Target Modulation Activities and Cytotoxicity by Diverse Novel Therapeutic Agents” (PLoS ONE, 2014).
Where two headings read alike, the source gives them in different places.

Key:
SEM B-ALL cell line = test: Cytotoxicity assay, SEM; type: cell-based; settings: Homo sapiens, 96 h, four days in culture, Alamar blue assay or automated microscopy, ± SD, three experiments
Procedure: (§1) Cell lines were cultured in Opti-MEM medium (Gibco, Life Technologies Corporation, Burlington, Ontario) supplemented with 10% heat inactivated fetal bovine serum (FBS) (Gibco), 100 units/ml penicillin and 100 units/ml streptomycin (Gibco) and 0.05 mM 2-mercaptoethanol (Sigma-Aldrich, Oakville, Ontario) in T25 flasks (Nalge Nunc, Rochester, New York) or T75 flasks (Corning Incorporated, Corning, New York). All cell cultures were maintained at 37°C in a humidified incubator with 5% CO2.
(§2) For cytotoxicity profiling of Aurora kinase inhibitors against leukemia cell lines, inhibitors or vehicle control (DMSO, Sigma-Aldrich) were diluted in 100 µl of Opti-MEM per well in 96 well plates (Grenier Bio-One, Monroe, North Carolina) in triplicate at final concentrations ranging from 1×10^−6 to 10 µM. 1×10^4 cells per well were seeded and plates were incubated for 4 days. Following incubation for 4 days, cell survival was quantified by Alamar blue assay (Invitrogen) or automated inverted microscopy using the Celigo Cell Cytometer (Cyntellect, San Diego, California). […] During this period of incubation, the absorbance at 570–620 nm was measured (Opsys MR Plate Reader, Dynex Technologies, Chantilly, Virginia) at various time points, depending on the cell line or sample. Percent survival was calculated by comparing the absorbance ratio of the test well to the control well multiplied by 100%, as indicated in the following formula: […]
(§3) For automated inverted microscopy, the number of cells in each well was determined using the direct cell counting application as described previously. Briefly, following adjustment of image acquisition settings for bright-field imaging, the wells containing cells and appropriate dilutions of inhibitors were individually scanned. Based on these images, analysis parameters, including intensity threshold and cell diameter, were modified for optimal inclusion of viable cells in treated and control wells. These parameters were applied for subsequent replicates involving the same leukemia cell line or sample. The percent survival was then calculated as a ratio of the number of cells in treated wells to the number of cells in control wells multiplied by 100%. Given that Aurora kinase inhibitors interfere with cytokinesis, cells that are committed to death may still contain enlarging but intact cytoplasmic content before the eventual loss of cytoplasmic membrane integrity. The accuracy of Alamar blue assay may be, in theory, affected by the timing of these events.

Molt-3 T-ALL cell line = test: Cytotoxicity assay, Molt-3; type: cell-based, human; settings: T-ALL cell line Molt-3, four days in culture, Alamar blue assay or automated microscopy, ± SD, three experiments
Procedure: as §1, §2, §3

Aurora-C = settings: read-out: Targets (IC50 Value): Aurora-C; literature values; ref [10],[40],[44]–[64] as listed per inhibitor in Table 1; cited from earlier work
[1] = tested on: Patient #5 ALL/AML primary leukemia cells; test: Cytotoxicity assay, primary sample Patient #5; type: cell-based, human; settings: primary sample, four days in culture, Alamar blue assay or automated microscopy, one complete study, read-out: IC50, Patient #5 ALL/AML
Procedure: (§4) These include B-ALL (Patient #1), relapsed AML (Patient #2), AML/CML (Patient #3), infant ALL (Patient #4), and initial ALL presenting with secondary AML (Patient #5). […] The diluted sample was then layered on a Ficoll-Paque (GE Healthcare, Piscataway, New Jersey) gradient at a 1∶2 ratio of Ficoll to diluted sample. Samples were then centrifuged 1800 rpm for 20 minutes at room temperature. The buffy coat was removed with a pipette and transferred to a new centrifuge tube and diluted with PBS. After an additional centrifugation at 1200 rpm, the white blood cell pellet was washed with PBS and centrifuged one last time. Cells were re-suspended in Opti-MEM and viable cells were counted using trypan blue (Invitrogen, Life Technologies Corporation, Burlington, Ontario) exclusion on a haemocytometer. An identical protocol was followed for the isolation of white blood cells, referred to as “normal lymphocytes” in the following paragraphs, from healthy volunteers. Samples grown in culture for up to six months were cultured in Opti-MEM medium supplemented with 10% heat inactivated FBS, penicillin/streptomycin and 2-mercaptoethanol.
as §2, §3

MV4-11 AML cell line = test: Cytotoxicity assay, MV4-11; type: cell-based, human; settings: AML cell line MV4-11, four days in culture, Alamar blue assay or automated microscopy, ± SD, three experiments
Procedure: as §1, §2, §3

[2] = tested on: Patient #2 relapsed AML primary leukemia cells; test: Cytotoxicity assay, primary sample Patient #2; type: cell-based, human; settings: four days in culture, Alamar blue assay or automated microscopy, one complete study
Procedure: as §4, §2, §3

[3] = tested on: Patient #3 AML/CML primary leukemia cells; test: Cytotoxicity assay, primary sample Patient #3; type: cell-based, human; settings: Homo sapiens, 96 h, four days in culture, Alamar blue assay or automated microscopy, one complete study
Procedure: as §4, §2, §3

Normal Lymphocytes = test: Cytotoxicity assay, normal lymphocytes; type: cell-based, human; settings: normal lymphocytes (control for non-leukemia cytotoxicity), four days in culture, ± SD, three experiments
Procedure: as §4, §2, §3

UOCB1 B-ALL cell line = test: Cytotoxicity assay, UOCB1; type: cell-based, human; settings: four days in culture, Alamar blue assay or automated microscopy, ± SD, three experiments
Procedure: as §1, §2, §3

[4] = tested on: Patient #1 B-ALL primary leukemia cells; test: Cytotoxicity assay, primary sample Patient #1; type: cell-based, human; settings: four days in culture, Alamar blue assay or automated microscopy, one complete study
Procedure: as §4, §2, §3

[5] = tested on: Patient #4 infant leukemia primary cells; test: Cytotoxicity assay, primary sample Patient #4; type: cell-based, human; settings: four days in culture, Alamar blue assay or automated microscopy, one complete study
Procedure: as §4, §2, §3

KOPN8 B-ALL cell line = test: Cytotoxicity assay, KOPN8; type: cell-based, human; settings: four days in culture, Alamar blue assay or automated microscopy, ± SD, three experiments
Procedure: as §1, §2, §3

TIB-202 AML cell line = test: Cytotoxicity assay, TIB-202; type: cell-based, human; settings: AML cell line TIB-202, four days in culture, Alamar blue assay or automated microscopy, ± SD, three experiments
Procedure: as §1, §2, §3

HL-60 RA APML cell line = test: Cytotoxicity assay, HL-60 RA; type: cell-based, human; settings: APML cell line HL-60 RA, four days in culture, Alamar blue assay or automated microscopy, ± SD, three experiments
Procedure: as §1, §2, §3

Aurora-A = tested on: Aurora-A; set-up: method as in earlier work; settings: read-out: Targets (IC50 Value): Aurora-A, cited from earlier work
Nalm6 B-ALL cell line = test: Cytotoxicity assay, Nalm6; type: cell-based, human; settings: four days in culture, Alamar blue assay or automated microscopy, ± SD, three experiments
Procedure: as §1, §2, §3

Bone Marrow Stroma = test: Cytotoxicity assay, bone marrow stroma; type: cell-based, human; settings: bone marrow stroma (control for non-leukemia cytotoxicity), four days in culture, ± SD, three experiments
Procedure: as §2, §3

B1 B-ALL cell line = test: Cytotoxicity assay, B1; type: cell-based, human; settings: four days in culture, Alamar blue assay or automated microscopy, ± SD, three experiments
Procedure: as §1, §2, §3

Molm13 AML cell line = test: Cytotoxicity assay, Molm13; type: cell-based, human; settings: four days in culture, Alamar blue assay or automated microscopy, ± SD, three experiments
Procedure: as §1, §2, §3

[6] = tested on: normal cells versus leukemia cell lines; test: Comparison of cytotoxicity IC50 values, normal cells versus leukemia cell lines; type: cell-based, human; settings: normal lymphocytes and bone marrow stroma versus leukemia cell lines of Table 2
Procedure: as §2, §3

NB4 APML cell line = test: Cytotoxicity assay, NB4; type: cell-based, human; settings: four days in culture, Alamar blue assay or automated microscopy, ± SD, three experiments
Procedure: as §1, §2, §3

C1 B-ALL cell line = test: Cytotoxicity assay, C1; type: cell-based, human; settings: four days in culture, Alamar blue assay or automated microscopy, ± SD, three experiments
Procedure: as §1, §2, §3

HL-60 APML cell line = test: Cytotoxicity assay, HL-60; type: cell-based, human; settings: APML cell line HL-60, four days in culture, Alamar blue assay or automated microscopy, ± SD, three experiments
Procedure: as §1, §2, §3

Aurora-B = tested on: Aurora-B; set-up: method as in earlier work; settings: literature values; ref [10],[22],[27],[40],[44]–[64] as listed per inhibitor in Table 1; read-out: Targets (IC50 Value): Aurora-B; cited from earlier work
CEM T-ALL cell line = test: Cytotoxicity assay, CEM; type: cell-based, human; settings: four days in culture, Alamar blue assay or automated microscopy, ± SD, three experiments
Procedure: as §1, §2, §3

[7] = literature values, ref [10],[22],[27],[40],[44]–[64] as listed per inhibitor in Table 1

Cc1cc(Nc2cc(N3CCN(C)CC3)nc(Sc3ccc(NC(=O)C4CC4)cc3)n2)[nH]n1 [VX-680]
IC50 (SEM B-ALL cell line): 60 ± 20 nM | IC50 (Molt-3 T-ALL cell line; Homo sapiens, 96 h): 0.9 nM | IC50 (Aurora-C): […] | IC50 ([1]; Homo sapiens, 96 h): 0.5 nM | IC50 (MV4-11 AML cell line; Homo sapiens, 96 h): 2 ± 1 nM | IC50 ([2]; Homo sapiens, 96 h): 100 nM | IC50 [3]: 2000 nM | IC50 (Normal Lymphocytes; Homo sapiens, Lymphocyte, 96 h): 5000 ± 900 nM | IC50 (UOCB1 B-ALL cell line; Homo sapiens, UoC-B1, 96 h): < 0.001 nM | IC50 ([4]; Homo sapiens, 96 h): 0.09 nM | IC50 ([5]; Homo sapiens, 96 h): 1000 nM | IC50 (KOPN8 B-ALL cell line; Homo sapiens, KOPN-8, 96 h): 3 ± 0.5 nM | IC50 (TIB-202 AML cell line; Homo sapiens, 96 h): 7 ± 3 nM | IC50 (HL-60 RA APML cell line; Homo sapiens, 96 h): 1 ± 0.5 nM | IC50 (Aurora-A): […] | IC50 (Nalm6 B-ALL cell line; Homo sapiens, NALM-6, 96 h): 0.2 nM | IC50 (Bone Marrow Stroma; Homo sapiens, 96 h): > 10000 nM | IC50 (B1 B-ALL cell line; Homo sapiens, 96 h): 5 ± 3 nM | IC50 (Molm13 AML cell line; Homo sapiens, MOLM-13, 96 h): 4 ± 2 nM | IC50 values for the normal cells compared with IC50 values for the leukemia cell lines (potential therapeutic window) [6]: higher than the IC50 values for the leukemia cell lines | IC50 (NB4 APML cell line; Homo sapiens, 96 h): 7 ± 2 nM | IC50 (C1 B-ALL cell line; Homo sapiens, 96 h): 0.4 nM | IC50 (HL-60 APML cell line; Homo sapiens, 96 h): 60 ± 5 nM

CCN(CCCOc1ccc2c(Nc3cc(CC(=O)Nc4cccc(F)c4)n[nH]3)ncnc2c1)CCOP(=O)(O)O [AZD1152]
IC50 (SEM B-ALL cell line): 100 ± 60 nM | IC50 (Molt-3 T-ALL cell line; Homo sapiens, 96 h): < 0.001 nM | IC50 ([1]; Homo sapiens, 96 h): 0.02 nM | IC50 (MV4-11 AML cell line; Homo sapiens, 96 h): 0.9 nM | IC50 ([2]; Homo sapiens, 96 h): 600 nM | IC50 [3]: > 10000 nM | IC50 (Normal Lymphocytes; Homo sapiens, Lymphocyte, 96 h): > 10000 nM | IC50 (UOCB1 B-ALL cell line; Homo sapiens, UoC-B1, 96 h): 0.6 nM | IC50 (Aurora-B): […] | IC50 ([4]; Homo sapiens, 96 h): 0.005 nM | IC50 ([5]; Homo sapiens, 96 h): > 10000 nM | IC50 (KOPN8 B-ALL cell line; Homo sapiens, KOPN-8, 96 h): 0.2 nM | IC50 (TIB-202 AML cell line; Homo sapiens, 96 h): 500 ± 200 nM | IC50 (HL-60 RA APML cell line; Homo sapiens, 96 h): 0.7 nM | IC50 (Aurora-A; [7]): […] | IC50 (Nalm6 B-ALL cell line; Homo sapiens, NALM-6, 96 h): 8 ± 2 nM | IC50 (CEM T-ALL cell line; Homo sapiens, 96 h): < 0.001 nM | IC50 (Bone Marrow Stroma; Homo sapiens, 96 h): > 10000 nM | IC50 (B1 B-ALL cell line; Homo sapiens, 96 h): 200 ± 100 nM | IC50 (Molm13 AML cell line; Homo sapiens, MOLM-13, 96 h): 7 ± 3 nM | IC50 values for the normal cells compared with IC50 values for the leukemia cell lines (potential therapeutic window) [6]: higher than the IC50 values for the leukemia cell lines | IC50 (NB4 APML cell line; Homo sapiens, 96 h): 50 ± 20 nM | IC50 (C1 B-ALL cell line; Homo sapiens, 96 h): 0.8 nM | IC50 (HL-60 APML cell line; Homo sapiens, 96 h): 300 ± 90 nM

CN(C)c1ccc(-c2nc3ncc(Cl)c(N4CCN(CC(=O)Nc5nccs5)CC4)c3[nH]2)cc1 [CCT129202]
IC50 (Molt-3 T-ALL cell line): 2000 ± 600 nM | IC50 [1]: 70 nM | IC50 (MV4-11 AML cell line): 100 ± 60 nM | IC50 [2]: 400 nM | IC50 (Normal Lymphocytes): > 10000 nM | IC50 (UOCB1 B-ALL cell line): 900 ± 90 nM | IC50 (Aurora-B): 200 nM | IC50 [4]: 700 nM | IC50 [5]: > 10000 nM | IC50 (KOPN8 B-ALL cell line): 700 ± 100 nM | IC50 (TIB-202 AML cell line): 50 ± 5 nM | IC50 (HL-60 RA APML cell line): 8000 ± 500 nM | IC50 (Aurora-A; [7]): 40 nM | IC50 (Nalm6 B-ALL cell line): 2000 ± 800 nM | IC50 (CEM T-ALL cell line): 900 ± 50 nM | IC50 (Bone Marrow Stroma): 1000 ± 700 nM | IC50 (B1 B-ALL cell line): 3000 ± 600 nM | IC50 (Molm13 AML cell line): 5000 ± 900 nM | IC50 values for the normal cells compared with IC50 values for the leukemia cell lines (potential therapeutic window) [6]: lower than the IC50 values for the normal cells, but not as pronounced | IC50 (NB4 APML cell line): > 10000 nM | IC50 (C1 B-ALL cell line): 3000 ± 800 nM | IC50 (HL-60 APML cell line): 7000 ± 800 nM
